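Protocol summary: plate cells (96-well), add compound at 5 concentrations, incubate 48 h, interpolate endpoints linearly. Abbreviation: GI50, concentration required for 50% inhibition of growth. The concentration for full growth arrest is given as TGI.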

Some test systems named below: 786-0 renal; U251 CNS; KM12 colon; OVCAR-3 ovarian; TK-10 renal; PC-3 prostate; CAKI-1 renal; MOLT-4 leukemia; NCI-H460 lung; RXF 393 renal.
Holding throughout (assay): growth of human tumour cells (NCI), 48 h

As for `CC1=C([Se]CC(OC(=O)[C@@H](CSSC(C)(C)C)NC(=O)C(C)(C)C)C(=O)NCCCCCC(=O)OCc2ccccc2)C(=O)c2ccccc2C1=O` (stereo partly drawn), the GI50 was 2.1 µM in the experiment with 786-0 renal; 1.25 µM with U251 CNS; 1.8 µM in the experiment with KM12 colon; 1.87 µM in the experiment on OVCAR-3 ovarian; 2.42 µM in the experiment with TK-10 renal; 1.5 µM in the experiment with PC-3 prostate. Moreover, the results for the GI50 in the experiment with CAKI-1 renal, in the experiment on MOLT-4 leukemia and in the experiment with NCI-H460 lung were 2.18 µM, 3.24 µM and 0.637 µM, respectively. Further, the TGI in the experiment with 786-0 renal was determined as 3.66 µM; in the experiment on U251 CNS, 2.81 µM; with KM12 colon it was 3.5 µM; in the experiment with OVCAR-3 ovarian, 3.38 µM; in the experiment on TK-10 renal, 4.43 µM; in the experiment on PC-3 prostate, 3.63 µM. Also, the TGI is 4.52 µM in the experiment on CAKI-1 renal, 9.52 µM in the experiment with MOLT-4 leukemia and 2.52 µM with NCI-H460 lung.

For the compound `O=C(CC1(O)C(=O)Nc2ccccc21)c1ccc(O)cc1O` (stereo not drawn), the TGI in the experiment with 786-0 renal, in the experiment with OVCAR-3 ovarian, in the experiment on TK-10 renal, with CAKI-1 renal, with RXF 393 renal and in the experiment on MOLT-4 leukemia was over 100 µM each time. This compound also came in with a TGI in the experiment with NCI-H460 lung of over 100 µM.

For `CC(=O)[CH-]C(C)=O.CC(=O)[CH-]C(C)=O.CC(=O)[CH-]C(C)=O.[Cl-].[Hf+4]`, the GI50 with 786-0 renal, in the experiment with U251 CNS, with KM12 colon, in the experiment with OVCAR-3 ovarian, in the experiment on TK-10 renal and in the experiment on CAKI-1 renal was over 100 µM in each case. The GI50 in the experiment on RXF 393 renal, in the experiment with MOLT-4 leukemia and in the experiment on NCI-H460 lung was over 100 µM in each case. Moreover, the TGI with 786-0 renal, in the experiment on U251 CNS, with KM12 colon, in the experiment on OVCAR-3 ovarian, in the experiment on TK-10 renal and in the experiment on CAKI-1 renal was over 100 µM throughout. Further, the TGI in the experiment with RXF 393 renal, in the experiment on MOLT-4 leukemia and with NCI-H460 lung was over 100 µM throughout.

Take `COc1ccc(C2c3cc4c(cc3OC(O)(CO)C2C(=O)O)OCO4)c(OC)c1OC` (stereo not drawn) (tested in a mixture with another compound): the TGI in the experiment with 786-0 renal, with U251 CNS, in the experiment with OVCAR-3 ovarian, in the experiment on TK-10 renal, with CAKI-1 renal and in the experiment with RXF 393 renal was over 100 µM each time. For the same compound, the TGI in the experiment on MOLT-4 leukemia and with NCI-H460 lung was over 100 µM throughout.

As to `CCN(CC)CCCN1C(=O)c2c(c(C)c3c(oc4cc(O)ccc43)c2C)C1=O`, the GI50 in the experiment with 786-0 renal is 1.8 µM; in the experiment on U251 CNS it was 1.74 µM; in the experiment with KM12 colon, 1.8 µM; in the experiment on OVCAR-3 ovarian, 1.79 µM; in the experiment on TK-10 renal, 1.77 µM; in the experiment with CAKI-1 renal, 1.62 µM. In addition, the GI50 in the experiment on RXF 393 renal was 1.54 µM; in the experiment with NCI-H460 lung, 1.82 µM. Also, the TGI in the experiment on 786-0 renal came out at 3.43 µM; with U251 CNS, 3.2 µM; with KM12 colon, 3.37 µM; with OVCAR-3 ovarian it was 3.27 µM; in the experiment with TK-10 renal it was 3.28 µM; in the experiment on CAKI-1 renal, 3.05 µM. Also, the results for the TGI in the experiment with RXF 393 renal and in the experiment with NCI-H460 lung were 3.24 µM and 3.35 µM, respectively.

In the case of `CC1(C)CC2=NOS3=C2C(=NO3)C1c1ccccn1` (stereo not drawn), the TGI with 786-0 renal, in the experiment on U251 CNS, in the experiment with KM12 colon, in the experiment on OVCAR-3 ovarian, in the experiment on TK-10 renal and with PC-3 prostate was over 100 µM each time. Moreover, the figures for the TGI in the experiment with CAKI-1 renal, in the experiment on MOLT-4 leukemia and with NCI-H460 lung were over 100 µM, 95.6 µM and over 100 µM, respectively.

With `Cc1cc(Nc2nc(N3CCOCC3)nc3ccccc23)n[nH]1`, the GI50 was 3.91 µM with 786-0 renal; 4.83 µM in the experiment on U251 CNS; 0.4 µM in the experiment on KM12 colon; 11.5 µM in the experiment with OVCAR-3 ovarian; 1.52 µM in the experiment on TK-10 renal; 1.4 µM with CAKI-1 renal. Also, the GI50 was 1.35 µM in the experiment on RXF 393 renal, 15 µM with MOLT-4 leukemia and 4.45 µM in the experiment with NCI-H460 lung. The TGI was 26.1 µM in the experiment with 786-0 renal; 21.6 µM with U251 CNS; over 100 µM with KM12 colon; over 100 µM with OVCAR-3 ovarian; 37.3 µM in the experiment with TK-10 renal; 12.3 µM in the experiment with CAKI-1 renal. Further, the figures for the TGI in the experiment with RXF 393 renal, with MOLT-4 leukemia and with NCI-H460 lung were 6.17 µM, 77.9 µM and over 100 µM, respectively.

Regarding `O=C(CCc1ccc(O)c(O)c1)c1ccc(O)c(O)c1O`, the TGI with 786-0 renal is over 100 µM; in the experiment with U251 CNS, 62.4 µM; in the experiment with KM12 colon it was 36.2 µM; in the experiment on TK-10 renal, 47.3 µM; in the experiment with PC-3 prostate, over 100 µM; in the experiment on CAKI-1 renal it was 37.9 µM. The TGI in the experiment on MOLT-4 leukemia worked out at 89.5 µM; in the experiment with NCI-H460 lung it was 36.2 µM.

In the case of `O=C(O/N=C1/CCC/C1=C\c1ccccc1)c1ccccc1`, the TGI in the experiment with 786-0 renal, in the experiment on U251 CNS, with KM12 colon, in the experiment on OVCAR-3 ovarian, in the experiment on TK-10 renal and in the experiment on CAKI-1 renal was over 100 µM in each case. In addition, the TGI was over 100 µM with RXF 393 renal and 78.1 µM with MOLT-4 leukemia.

Take `COc1ccc2c(c1)C(=O)c1c-2c(N2CCN(C(=O)CN(C)C)CC2)nc2ccccc12`: the GI50 is 14.4 µM with 786-0 renal; 14.9 µM in the experiment with U251 CNS; 25.4 µM in the experiment on KM12 colon; 19.5 µM with OVCAR-3 ovarian; 14.1 µM in the experiment with TK-10 renal; 14.4 µM with PC-3 prostate. The values for the GI50 in the experiment with CAKI-1 renal, with MOLT-4 leukemia and in the experiment on NCI-H460 lung were 47.9 µM, 5.23 µM and 6.01 µM, respectively. For the same compound, the TGI with 786-0 renal came to 33.7 µM; in the experiment with U251 CNS, 30.6 µM; in the experiment on KM12 colon, 83.1 µM; with OVCAR-3 ovarian it was 58.6 µM; with TK-10 renal it was 37.6 µM; in the experiment with PC-3 prostate, 31.5 µM. Further, the TGI is over 100 µM in the experiment on CAKI-1 renal, 24.8 µM in the experiment with MOLT-4 leukemia and 20.6 µM in the experiment with NCI-H460 lung.
